Experimental data reported in patent US11332438B2, “Creatine prodrugs, compositions and methods of use thereof” (Ultragenyx Pharmaceutical Inc., priority 2017, dated 2022).

What was measured:
[1] = Plasma stability, human plasma; type: in vitro ADME; details: 37 °C, read-out: Plasma Stability Human t1/2
Experimental: (§1) The stabilities of creatine prodrugs can be evaluated in one or more in vitro systems using a variety of preparations following methods known in the art. Experimental conditions useful for the in vitro studies are described in Table 1. Prodrug is added to each preparation in triplicate. […]
(§2) Protocol for plasma stability for early screen macrocycles (Method A):
(§3) Frozen plasma was thawed by placing at 37° C. quickly and centrifuged at 3,000 rpm for 8 minutes to remove clots. Then the supernatant was pipetted and pooled as the plasma to be used in the experiment. The plasma was placed on ice until used. The test compounds and reference compounds spiking solution was prepared as a 2.5 mM test compounds spiking solution A: Add 20 μL of 10 mM test compounds stock solution to 60 μL DMSO. 0.1 mM Spiking solution B was prepared: Add 40 μL of spiking solution A to 960 μL of […] Sodium phosphate buffer with 0.5% BSA. […] For 0-min, 400 μL of ACN containing IS was added to the wells of 0-min plate and then 90 μL of plasma was added. […] 50 μL of the supernatant was transferred from each well into a 96-well sample plate containing 120 μL of ultra pure water (Millipore, ZMQS50F01) and analyzed by LC/MS.
(§4) Protocol for plasma stability (Method B):
(§5) The frozen plasma was thawed in a 37° C. water bath and then, if needed, adjusted to pH=7.4 then preheated in a 37° C. incubator. The test article was dissolved in 10% DMSO/water and spiked into plasma pre-plated into 96 well plates at a final concentration of 1 μM. Discrete incubations were performed at 37° C. and included 5 time points: t=0, 2, 5, 15, and 30 min. Samples were then crashed with 4× volume, ice cold 20% water/80% acetonitrile and spun at 4000 g for 10 mins. The supernatant was dried down and reconstituted with water and analyzed by LC-MS/MS. The half life in minute was calculated.

[2] = Plasma stability, mouse plasma; type: in vitro ADME; details: 37 °C, read-out: Plasma Stability Mouse t1/2
Experimental: as §1, §2, §3, §4, §5

[3] = Liver microsome stability, human; type: in vitro ADME; details: liver microsomes, read-out: Microsome Stability Human t1/2
Experimental: as §1
(§6) Protocol for Microsomal Stability:
(§7) For reference compound, a 500 μM spiking solution was prepared: add 10 μL of 10 mM DMSO stock solution into 190 μL ACN. […] For test compound, a 5 mM spiking solution was prepared: add 10 μL of 10 mM DMSO stock solution into 10 μL ACN. […] NADPH stock solution (6 mM) was prepared by dissolving NADPH into buffer 0.1 M Potassium Phosphate buffer, 1.0 mM EDTA, pH 7.4. […] For 0-min, 135 μL of ACN containing IS was added to the wells of 0-min plate and then 15 μL of NADPH stock solution (6 mM) was added. 15 μL of NADPH stock solution (6 mM) was added to the samples designated as 0-, 5-, 10-, 20-, 30-min, 60-min; 15 μL of buffer 0.1 M Potassium Phosphate buffer, 1.0 mM EDTA, pH 7.4, was added to the samples designated as 60-min without NADPH. At 5-min, 10-min, 20-min, and 30-min, 60-min 135 μL of ACN containing IS was added to the wells of corresponding plates, respectively, to stop the reaction. […] 50 μL of the supernatant from each well was transferred into a 96-well sample plate containing 50 μL of ultra pure water (Millipore, ZMQS50FOI) and analyzed by LC/MS.

[4] = Liver microsome stability, mouse; type: in vitro ADME; details: liver microsomes, read-out: Microsome Stability Mouse t1/2
Experimental: as §1, §6, §7

[5] = Chemical stability in phosphate buffered saline (PBS); type: physicochemical; details: 50 μM prodrug
Experimental: (§8) Chemical stability of creatine prodrugs in phosphate buffered saline (PBS), simulated intestinal fluid (SIF) without pancreatin, simulated gastric fluid (SGF) without pepsin were determined by LC-UV, LC-CAD, LC-UV-CAD or LC-MS/MS as appropriate. Creatine prodrugs of the present disclosure (50 μM) were incubated at 37° C. according to described protocols and prodrug levels were compared between t=0, t=15, t=60, and t=120 mins by peak area ratio to determine the percentage remained at t=120 mins (2 h).
(§9) Protocol for PBS, SIF and SGF stability for screening:
(§10) Prodrugs (50 μM) were incubated in PBS, FaSSIF (Biorelevant) or FaSSGF (Biorelevant) at 37° C.

[6] = Chemical stability in simulated gastric fluid (SGF) without pepsin; type: physicochemical; details: 50 μM prodrug
Experimental: as §8, §9, §10

SMILES	half-life ([1]; Table 2A) [h]	half-life ([2]; Table 2A) [h]	half-life at 10 μM ([3]; pH 7.4, Table 2A) [h]	half-life at 10 μM ([3]; pH 7.4, Table 2B) [h]	half-life at 10 μM ([4]; pH 7.4, Table 2A) [h]	half-life at 10 μM ([4]; pH 7.4, Table 2B) [h]	Chemical Stability PBS % T0 at 2 hours at 37 °C. ([5]; Table 2A) [%]	Chemical Stability PBS % T0 at 2 hours at 37 °C. ([5]; Table 2B) [%]	Chemical Stability SGF, no enzyme % T0 at 2 hours at 37 °C. ([6]; Table 2A) [%]	Chemical Stability SGF, no enzyme % T0 at 2 hours at 37 °C. ([6]; Table 2B) [%]	half-life ([1]; Table 2B) [h]	half-life ([2]; Table 2B) [h]
[2H]C([2H])([2H])N(CC(=O)[O-])C(=N)NC(=O)CCCCCCCCCC/C=C\CCCCC.[Na+] [Compound 27]	> 3	> 3	0.233		0.167		67		96			
[2H]C([2H])([2H])N(CC(=O)[O-])C(=N)NC(=O)CCCCCCCCCCCC.[Na+] [Compound 29]	> 3	> 3	0.983		1.83		64		91			
[2H]C([2H])([2H])N(CC(=O)O)C(=N)NC(=O)CCCCCCC/C=C\CCCCCC [Compound 28]	> 3	> 3	1.5		1.4		51		99			
[2H]C([2H])([2H])N(CC(=O)[O-])C(=N)NC(=O)CCCCC/C=C\CCCCCCCCCC.[Na+] [Compound 26]	> 3	> 3	1.13		> 2.42		45		95			
[2H]C([2H])([2H])N(CC(=O)[O-])C(=N)NC(=O)CCCCCCCCCC.[K+] [Compound 33]	> 3	> 3	1.2		1.77		85		79			

The next lines start with the values.

half-life ([1]; Table 2A) [h]	half-life ([2]; Table 2A) [h]	half-life at 10 μM ([3]; pH 7.4, Table 2A) [h]	half-life at 10 μM ([3]; pH 7.4, Table 2B) [h]	half-life at 10 μM ([4]; pH 7.4, Table 2A) [h]	half-life at 10 μM ([4]; pH 7.4, Table 2B) [h]	Chemical Stability PBS % T0 at 2 hours at 37 °C. ([5]; Table 2A) [%]	Chemical Stability PBS % T0 at 2 hours at 37 °C. ([5]; Table 2B) [%]	Chemical Stability SGF, no enzyme % T0 at 2 hours at 37 °C. ([6]; Table 2A) [%]	Chemical Stability SGF, no enzyme % T0 at 2 hours at 37 °C. ([6]; Table 2B) [%]	half-life ([1]; Table 2B) [h]	half-life ([2]; Table 2B) [h]	SMILES
1.67	0.133	0.15	0.15	< 0.0833	< 0.0833	42	107	86	95			Cl.[2H]C([2H])([2H])N(CC(=O)OC(C)(C)C)C(=N)NC(=O)CCCCCCCCCC [Compound 44]
			< 0.0833		< 0.0833		101		99	> 3	> 3	[2H]C([2H])([2H])N(CC(=O)OC(C)(C)C(C)C)C(=N)NC(=O)CCCCCC [Compound 60]
			< 0.0833		< 0.0833		106		99	< 0.0833	< 0.0833	[2H]C([2H])([2H])N(CC(=O)OC(C)(C)C(C)(C)O)C(=N)NC(=O)CCCCCCCCCC [Compound 61]
			> 1.5		> 1.5		78		89	> 3	> 3	[2H]C([2H])([2H])N(CC(=O)[O-])C(=N)NC(=O)CCCCCCCCCC(C)O.[Na+] (stereo not shown) [Compound 57]
			< 0.0833		< 0.0833		62		103	> 3	1.27	[2H]C([2H])([2H])N(CC(=O)OC(C)(C)C(C)C)C(=N)NC(=O)CCCCCCCCCC [Compound 62]
> 3	> 3	1.08		> 2.42		116		86				[2H]C([2H])([2H])N(CC(=O)[O-])C(=N)NC(=O)CCCCCCCC.[Li+] [Compound 35]
			> 1.5		> 1.5		58		81	> 3	> 3	[2H]C([2H])([2H])N(CC(=O)[O-])C(=N)NC(=O)CCCCCCCCCCCO.[Na+] [Compound 56]
